The text below walks through data of patent publication US20120196324A1, “Method for Producing an Antifungal Peptide in a Filamentous Fungal Host Cell” (NOVOZYMES A/S, priority 2007, published 2012).

In one experiment the test system is Aspergillus oryzae BECh2. The experiment in a line: Tolerance to ETD151: growth in YCM with ETD151. Format: cell-based. As to conditions: YCM with different amounts of ETD151 (maximum 5815 mg/L), 6 days. How it is done:
(§1) Selected strains were subjected to YCM with 0-5815 mg/L ETD151 for 6 days in order to test tolerance to ETD151.
(§2) To test the tolerance to ETD151, ToC1512, BECh2 and the 7 gcs^− mutants were grown in YCM with different amounts of ETD151 (maximum 5815 mg/L). […] One of the gcs^− mutants (no. 18) was hereafter selected and named PtSL1.

The test system of experiment [1] is Aspergillus oryzae ToC1512. Briefly: Tolerance to ETD151: growth in YCM with ETD151. It is filed as cell-based. Conditions: YCM with different amounts of ETD151 (maximum 5815 mg/L), 6 days. How it is done: as §1, §2
For experiment [2], the system named is gcs- mutants of A. oryzae ToC1512. Briefly: Tolerance to ETD151: growth in YCM with ETD151. Format: cell-based, Aspergillus oryzae. Conditions: high concentrations of ETD151 (maximum 5815 mg/L), 6 days, 7 gcs- mutants. As to the method:
as §1, §2

Another experiment relates to Candida utilis. Briefly: Bioassay (plate assay, growth inhibition seen as clearing zones). Format: cell-based. Conditions: ETD151 expressed by BECh2 transformants (pPtSL4); Candida utilis as target organism. As to the method:
ETD151 was diluted to 58 μg/ml in peptide dilution buffer (0.1% BSA, 0.01% Acetic Acid) and further on to 6 μg/ml and 0.6 μg/ml and used as control. Candida utilis was grown on YPD plates, A. oryzae on Cove N medium slants. An inoculum of fungal growth was resuspended in 0.1% Tween to an optical density of approx. 1 McFarland Unit. A NUNC-tube with 15 ml ⅓ PD agarose at approx. 42° C. was inoculated with approx. 6×10^6 CFU, mixed thoroughly and poured into a sterile 9 cm square dish (Falcon 351112) on a levelling table and allowed to solidify and set for 30 minutes. Ten μl of each of the peptide dilutions was added to the surface of the plate. The plates were incubated at 30° C. (or 37° C. as appropriate). The next day, growth was detected either by observing the inhibition zones by oblique illumination (or by adding 3 ml of a 3 mM MTT solution and leaving the plate for 1-2 hours at room temperature).
BECh2 was transformed with plasmid pPtSL4 and subjected to amdS medium. amdS resistant colonies were isolated as spores from single sporangies and subjected to amdS medium twice. From 45 BECh2 transformants, 43 were subjected to a Bioassay as described using Candida utilis as target organism and to SDS gel electrophoresis.

For experiment [3], the system named is Pichia pastoris gcs-deletion mutants. As to conditions: glucosylceramide synthetase deficient Pichia pastoris; cited from earlier work.
Experiment [4] deals with Candida albicans gcs-deletion mutants. As to conditions: glucosylceramide synthetase deficient Candida albicans; cited from earlier work.

For the substance “ETD151: heliomycin derivative, antifungal defensin peptide shown in SEQ ID NO: 7, expressed in Aspergillus oryzae (DKLIGSCVWGAVNYTSNCRAECKRRGYKGGHCGSFANVNCWCET; heliomycin derivative)”, the “growth of strain in presence of ETD151” value is on record as “grew badly” in the experiment with Aspergillus oryzae BECh2, “did not grow at all” in experiment [1] and “grew very well” in experiment [2]. For the same substance, the “growth inhibition in plate Bioassay” value in the experiment with Candida utilis is reported as “clearing zones”.

“RsAFP2: antifungal defensin (QKLCQRPSGTWSGVCGNNNACKNQCIRLEKARHGSCNYVFPAHKCICYFPC; UniProt P30230 30-80, looked up)”: the “susceptibility of gcs-deletion mutants” value in experiment [3] and in experiment [4] was “resistant” in each case.
